Assay results as given in patent US12642870B2, “Compositions and methods for delivery of nucleic acids” (Poseida Therapeutics, Inc., priority 2020, dated 2026).

Tests used:
BALB/C mice = experiment: In vivo intramuscular LNP delivery of fLuciferase mRNA, bioluminescent imaging; conditions: for Avg IM flux n = 2 / Ave flux (p/s): intramuscular 20 μg fLuciferase mRNA; for Avg IM flux n = 2: right hind limb, BLI at 4 hr, LNP compound/DOPE/Cholesterol/DMG-PEG2000 33.5/32.0/33.5/1.0, lipid:RNA 25:1; for Ave flux (p/s): LNP COMPOUND 2/DOPE/Cholesterol/DMG-PEG2000 32.411/32.411/32.411/2.77
Description: (§1) Adult female BALB/C mice (n=2/group) were intramuscularly administered in the right hind limb of each mouse 20 μg of 5′-CleanCap-fLuciferase mRNA (TriLink Biotech) formulated with LNP composition comprising COMPOUND 2 as prepared according to Example 2 in the following percentages shown in Table 16:
The location and extent of luciferase expression in treated and untreated mice were determined at 4 hr and 24 hr by bioluminescent imaging (BLI) of anesthetized mice using an IVIS Lumina in vivo imaging system (Perkin Elmer) according to the manufacturer's instructions. Briefly, mice were anesthetized using isoflurane in oxygen, and placed supine on a heated stage. Mice were then administered D-luciferin (Perkin-Elmer #122799) IP, and BLI was performed.
as §1, with “In another experiment, adult female” for “Adult female”, “comprising one of COMPOUNDS 3-8” for “comprising COMPOUND 2”, “Example 3” for “Example 2”, “Table 18:” for “Table 16:”
The location and extent of luciferase expression in treated and untreated mice were determined at 4 hr by bioluminescent imaging (BLI) of anesthetized mice as described above.

[1] = Physical characterisation of mRNA-containing LNPs (DLS, NTA, zeta potential); assay type: physicochemical; conditions: Fluc mRNA LNPs: compound/DOPE/Cholesterol/DMG-PEG2000 41.44/45.85/10/2.7, lipid:RNA 40:1 (w/w)
Description: A series of ten multi-component LNP compositions of the present disclosure comprising exemplary compounds of Formula (I) was prepared by combining various percentages of an exemplary compound of Formula (I), the phospholipid DOPE, the structural lipid cholesterol (Chol) and 1,2-dimyristoyl-sn-glycerol methoxypolyethylene glycol (DMG-PEG2000; Avanti Polar Lipids, Alabaster, Alabama, USA).
Individual 25 mg/ml stock solutions were prepared by solubilizing the lipids in 200-proof HPLC-grade ethanol and stock solutions were stored at −80° C. until formulated. At the time of formulation, the lipid stock solutions were briefly allowed to equilibrate to room temp and then placed on a hot plate maintained at a temperature range of 50-55° C.
A 1 mg/mi solution of the desired mRNA to be incorporated into the LNPs was added to 150 mM sodium acetate buffer (pH 5.2) to form a stock solution and kept on ice. The lipid phase was mixed with the aqueous m RNA phase inside a microfluidic chip using a NanoAssemblr® instrument (Precision Nanosystems, Vancouver, BC, Canada) according to the manufacturer's instructions to form LNP compositions comprising encapsulated mRNAs.
The resultant mRNA LNP compositions were then transferred to a Repligen Float-A-Lyzer dialysis device—having a molecular weight cut off (MWCO) of 8-10 kDa (Spectrum Chemical Mfg. Corp, CA, USA) and processed by dialysis against phosphate buffered saline (PBS) (dialysate:dialysis buffer volume at least 1:200 v/v), pH 7.4 overnight at 4° C. (or alternatively room temperature for at least 4 hours), to remove the 25% ethanol and achieve a complete buffer exchange. In some experiments the LNPs were further concentrated by in an Amicon® Ultra-4 centrifugal filter unit, MWCO-30 kDa (Millipore Sigma, USA) spun at ˜4100×g in an ultracentrifuge. The mRNA LNPs were then stored at 4° C. until further use.
A series of multicomponent LNP compositions comprising one of COMPOUNDS 1-8 described in Example 1 and the mRNA encoding flue was prepared according to Example 2 and the physical characteristics of the resulting LNPs were analyzed.
In a separate experiment, LNP compositions of the present disclosure comprising mRNA encoding firefly luciferase (hereafter “Fluc”; TriLink) and COMPOUNDS 1-8 were prepared as described in Example 2 by combining one of COMPOUNDS 1-8, the phospholipid DOPE, the structural lipid cholesterol (Chol) and 1,2-dimyristoyl-sn-glycerol methoxypolyethylene glycol (DMG-PEG2000) in the percentages presented in Table 8: […]

[2] = Physical characterisation of DNA-containing LNPs (DLS, NTA, zeta potential); assay type: physicochemical; conditions: nano-pB-EF1a-GFP DNA LNPs: compound/DOPE/Cholesterol/DMG-PEG2000 38.0/50.0/10.0/2.0, lipid:DNA 45:1 (w/w)
Description: LNP compositions of the present disclosure comprising DNA, a nanoplasmid encoding a piggyBac transposon, wherein the piggyBac transposon comprised GFP under control of the EF1a promoter (herein referred to as the nano-pB-EF1a-GFP), and one of COMPOUNDS 1-8 were prepared as described in Example 3 by combining one of COMPOUNDS 1-8, the phospholipid DOPE, the structural lipid cholesterol (Chol) and 1,2-dimyristoyl-sn-glycerol methoxypolyethylene glycol (DMG-PEG2000) in the following percentages in Table 20: […]

Resting T-cells [3] = experiment: LNP delivery of nano-pB-EF1a-GFP DNA to resting T-cells; assay type: cell-based; conditions: nano-pB-EF1a-GFP DNA LNPs 0.38:0.5:0.1:0.02, lipid:nucleic acid 45:1, 24 hr
Source text: The experiments described in this example used CD4/CD8 positive T-cells isolated from a leukapheresis product from a healthy donor.

HEK293T cells [4] = experiment: In vitro LNP delivery of eGFP mRNA to adherent cells; assay type: cell-based; conditions: 0.125 μg eGFP mRNA per well, 24 hr, flow cytometry, LNP 41.44/45.85/10.0/2.7, lipid:RNA 40:1
Description: HEK293T cells were seeded in 96 well plates and grown to 70% confluence in DMEM+10% FBS] under a 5% CO2 atmosphere at 37° C. A 0.125 μg amount of 5′-CleanCap-eGFP mRNA (TriLink Biotech) formulated with LNP compositions comprising COMPOUNDS 1-4 as prepared in Example 3 at the following percentages in Table 10 was added to each well.
After incubating for 24 hr, cells were imaged for GFP expression with a Leica fluorescence microscope and then detached from 96 well plate to quantitate expression by flow cytometry.

Resting T-cells [5] = experiment: LNP delivery of eGFP mRNA to resting T-cells; assay type: cell-based; conditions: eGFP mRNA LNPs 0.4144:0.4585:0.1:0.027, lipid:nucleic acid 40:1, 0.5 ug mRNA per well, 24 hrs
Description: In one experiment, LNPs of the present disclosure comprising one of COMPOUNDS 1-4, DOPE, Cholesterol and DMG-PEG2000 at a molar ratio of 0.4144:0.4585:0.1:0.027 and further comprising Cleancap mRNA encoding eGFP were formed on a NanoAssemblr® (Precision Nanosystems). […] Resting T-cells were treated with varying amounts of the four LNP composition and at 24 hrs, the cells were analyzed to determine the percentage of cells that were viable and that expressed […]. The results of the analysis are shown in Table 12 for a dose of 0.5 ug mRNA per well.

HEK293T cells [6] = experiment: In vitro LNP delivery of nano-pB-EF1a-GFP DNA to adherent cells; assay type: cell-based; conditions: 0.5 μg nano-pB-EF1a-GFP DNA per well in LNPs, flow cytometry
Description: HEK293T cells were seeded in 96 well plates and grown to 70% confluence in [DMEM+10% FBS] under a 5% CO2 atmosphere at 37° C. A 0.5 μg amount of nano-pB-EF1a-GFP DNA formulated with LNP compositions comprising COMPOUNDS 1, 3 & 4 as prepared in Examples 3 and 8 was added to each well. Following treatment with the LNPs, the cells were imaged for GFP+expression with a Leica fluorescence microscope and then detached from 96 well plate to quantitate expression by flow cytometry.

TF1a cells = experiment: Genetic modification of suspension cell line by LNP-delivered nanoplasmid transposon; assay type: cell-based; conditions: TF1a cells stably expressing SPB transposase; nanoplasmid transposon LNP 0.38:0.5:0.1:0.02; Day 6, flow cytometry
Description: In general, TF1a cells (a suspension cell line) were engineered to stably express the SPB transposase. Cell were plated at 5e5/ml. LNP comprising a nanoplasmid transposon coding for eGFP under control of the EF1a […] were added to each well at a concentration of […] (0.125 ug total) of DNA per well. Medium was exchanged and cells were split by spinning cells down in a v-bottom plate and resuspending cells in fresh RPMI+10% FBS+2 ug/ml Puromycin media on D4 post LNP addition). Day=6, cells were assessed for GFP expression by epifluorescence microscopy and flow cytometry.
For example, LNP compositions comprising COMPOUND 3 were prepared comprising COMPOUND 3, DOPE, Cholesterol and DMG-PEG2000 at a molar ratio of 0.38:0.5:0.1:0.02 and the nanoplasmid transposon and cells were assessed at Day 6 for GFP expression by epifluorescence microscopy and flow cytometry.

SMILES	Avg IM flux n = 2 (BALB/C mice)	Diameter (DLS; nm) [1] [nm]	Diameter (NTA; nm) [1] [nm]	PDI [1]	Total Particles/ml [1] [Particles/ml]	Zeta Potential (mV) [1] [mV]	Diameter (DLS; nm) [2] [nm]	Diameter (NTA; nm) [2] [nm]	PDI [2]	Total Particles/ml [2] [Particles/ml]	Zeta Potential (mV) [2] [mV]	% Viable GFP+ (Resting T-cells [3]) [%]	% Viable GFP+ (HEK293T cells [4]) [%]	% Viable GFP+ (Resting T-cells [5]) [%]	% Viable GFP+ (HEK293T cells [6]) [%]	further results
CC(C)C(CCC(C)C(CCC1CCC(C(=O)NC2CCC(CC3CCC(NC(=O)C4CCC(CCC(SCCN(C)C)C(C)CCC(SCCN(C)C)C(C)C)C(SCCN(C)C)C4)CC3)CC2)CC1SCCN(C)C)SCCN(C)C)SCCN(C)C (centres unmarked) [Compound 5]	2.12E+5	91.8	84.4	0.389	7.03E+10	0.18	82.0	85.8	0.168	2.31E+11	0.21					
CC(C)C(CCC1CCC(C(=O)NCCCCCCCCCCCCNC(=O)C2CCC(CCC(SCCN(C)C)C(C)C)C(SCCN(C)C)C2)CC1SCCN(C)C)SCCN(C)C (centres unmarked) [Compound 4]	2.07E+6											2.3	90.1	2.9	~17.1	
CC(C)C(CCC(C)C(CCC1CC2C(=O)N(c3ccc(N4C(=O)C5CC(CCC(SCCN(C)C)C(C)CCC(SCCN(C)C)C(C)C)C(SCCN(C)C)CC5C4=O)cc3)C(=O)C2CC1SCCN(C)C)SCCN(C)C)SCCN(C)C (centres unmarked) [Compound 7]	2.4E+5	123.5	108.4	0.113	5.10E+10	−0.29	110.2	90.8	0.224	5.52E+11	0.96					
CC(C)C(CCC1CCC(C(=O)NCCCCCCNC(=O)C2CCC(CCC(SCCN(C)C)C(C)C)C(SCCN(C)C)C2)CC1SCCN(C)C)SCCN(C)C (centres unmarked) [Compound 2]		79.6	113.8	0.259	2.97E+10	−0.19	80.6	105.0	0.221		−0.02	4.4	17.5	5.5		Ave flux (p/s) (BALB/C mice; Lipid:RNA 25:1, 4 hr): 4.58E+6 p/s; Ave flux (p/s) (BALB/C mice; Lipid:RNA 25:1, 24 hr): 3.53E+6 p/s; Ave flux (p/s) (BALB/C mice; Lipid:RNA 50:1, 4 hr): 9.67E+5 p/s; Ave flux (p/s) (BALB/C mice; Lipid:RNA 50:1, 24 hr): 8.09E+5 p/s; location of luciferase expression (BLI) (BALB/C mice; intramuscular 20 μg fLuciferase mRNA in right hind limb): detected by BLI predominantly at the injection site
CC(C)C(CCC(C)C(CCC1CCC(C(=O)NCCCCCCCCCCCCNC(=O)C2CCC(CCC(SCCN(C)C)C(C)CCC(SCCN(C)C)C(C)C)C(SCCN(C)C)C2)CC1SCCN(C)C)SCCN(C)C)SCCN(C)C (centres unmarked) [Compound 3]	5.8E+6											18.0	19.4	10.9	97.1	cells positive for GFP expression (TF1a cells): ~9.8%
